According to patent US20060135611A1, “Use of 2,5-dihydroxybenzenesulfonic compounds for the treatment of disorders based on an impairment of no production and/or of regulation of edhf function” (priority 2002, published 2006):

Experiments:
[1] = test system: human penile resistance arteries (HPRA); test: Vascular reactivity of resistance penile arteries (myograph, norepinephrine-contracted)
Procedure: Penile small arteries, helicine arteries (lumen diameter 150-400 μm), which are the terminal branches of deep penile arteries, were dissected by carefully removing the adhering trabecular tissue, and arterial ring segments (of 2 mm length) were subsequently mounted on two 40 μm wires on microvascular double Halpern-Mulvany myographs (J.P. Trading, Aarhus, Denmark) for isometric tension recordings. The vascular segments were allowed to equilibrate for 30 min in physiological salt solution (PSS) of the following composition (each given in mM): 119 NaCl, 4.6 KCl; 1.5 CaCl2, 1.2 MgCl2, 24.9 NaHCO3, 11 Glucose, 1, 2 KH2PO4, 0.027 EDTA in water at 37° C., continuously bubbled with a 95% O2/5% CO2 mixture to maintain a pH of 7.4. Passive tension and internal circumference of the vascular segments when relaxed in situ under a transmural pressure of […] (L100) were determined. The vascular segments were then set to an internal circumference eqivalent to 90% of L100, at which the force development was close to maximal as described in Mulvany MJ, Halpern W., “Contractile properties of small resistance arteries in spontaneously hypertensive and normotensive rats”, Circ. Res., 41, 19-26, 1977. The respective literature description is incorporated by reference and is part of the disclosure.
The preparations were then exposed to 125 mM K^+(KPSS, equimolar substitution of […] in PSS) and the contractile response was measured. The arteries were contracted with 1 μm norepinephrine (approximately 80% of KPSS induced contraction) and relaxation responses were evaluated by cumulative additions of compounds to the chambers.
Relaxation responses are expressed as percentage of total relaxation (loss in tone) induced by the addition of 0.1 mM papaverine HCl to the chambers at the end of the experiment. All data are expressed as mean ± standard error. Complete concentration-response or frequency-response curves were obtained and compared by a two-factor analysis of variance (ANOVA) statistical test using StatView sotfware tor Apple computers. Erectile responses were determined by measuring the area under the curve (AUC) of the intracavemosal pressure increases to rat cavemosal nerve stimulation normalized by mean arterial pressure values. The complete frequency-response curves were compared by a two-factor ANOVA test.

[2] = test system: Male genetically diabetic rats (BB/wor rats); test: Erectile responses to cavernosal nerve stimulation in anesthetized diabetic rats; type: in vivo, rat; details: 10 mg/kg intravenous; 60 min after administration; 1, 3 and 10 Hz
Procedure: Male genetically diabetic rats (BB/wor rats, Mölegaard Breeding and Research, Svensved, Denmark) were anesthetized with ketamine (60 mg/kg). The surgical procedure consisted of dissection and isolation of the right cavernous nerve through an abdominal midline incision and exposure of penile crura through a transverse perineal incision. Intracavemosal pressure (ICP) measurements were accomplished by insertion into the right crus of a 23-gauge needle connected to a disposable pressure transducer (Abbott, Sligo, Ireland) and a data acquisition system (ADInstruments, Castle Hill, Australia). Left carotid artery and right external jugular vein were catheterized for constant blood pressure measurement and saline or drug infusion, respectively. Electrical stimulation was applied by a delicate platinum bipolar hook electrode connected to a stimulator and current amplifier (Cibertec, Madrid, Spain). […]
Relaxation responses are expressed as percentage of total relaxation (loss in tone) induced by the addition of 0.1 mM papaverine HCl to the chambers at the end of the experiment. All data are expressed as mean ± standard error. […] Erectile responses were determined by measuring the area under the curve (AUC) of the intracavemosal pressure increases to rat cavemosal nerve stimulation normalized by mean arterial pressure values. […]

## O=S(=O)(O)c1cc(O)ccc1O [Calcium dobesilate, calcium 2,5-dihydroxybenzenesulfonate]
[1]; APA 100 nM + CTX 100 nM, NOS and COX inhibition
  potentiating effects on ACh-induced relaxation of HPRA with APA and CTX: abolished the potentiating effects
[1]; calcium dobesilate 10 μM
  effect on ACh-induced relaxation of HPRA: markedly potentiated
[1]; calcium dobesilate 10 μM, NOS and COX inhibition
  potentiation of ACh-induced relaxation of HPRA under combined inhibition of NOS and COX: not significantly affected
[1]; calcium dobesilate 10 μM, high potassium 35 mM
  potentiation of ACh-induced relaxation of HPRA at high potassium concentration: abolished
[1]; miconazole 0.3 mM
  potentiating effects on ACh-induced relaxation of HPRA resistant to NOS and COX inhibition, with miconazole: significantly reduced the potentiating effects
[2]
  erectile responses to cavernosal nerve stimulation (AUC of ICP increase normalized by mean arterial pressure): significantly enhanced
